# Measurements reported in US20170159101A1, “DRUG-RESISTANT P97 ATPASE MUTATIONS” (Cleave Biosciences, Inc., priority 2014, published 2017).
# Tests used:
# [1] = system: Hct116 resistant cell line clone #1 (p97 D649N); assay: GI50 fold-change, resistant clone #1 vs parental; assay type: cell-based, human; settings: Clone #1, Hct116, resistance generated with compound 2, G1945A / D649N; 72 hrs
# Method: (§1) Dose titration of test compounds were conducted in Hct116, DLD-1, or LoVo cell lines. In brief, cells were plated in 384-well plates and a selected candidate drug compound was added in a 10-point 2-fold serial dilution.
# [2] = system: Hct116 resistant cell line clone #6 (p97 A528T); assay: GI50 fold-change, resistant clone #6 vs parental; assay type: cell-based, human; settings: Clone #6, Hct116, resistance generated with compound 2, G1582 / A528T; 72 hrs
# Method: as §1
# [3] = system: Hct116 resistant cell line clone #8 (p97 N660D); assay: GI50 fold-change, resistant clone #8 vs parental; assay type: cell-based, human; settings: Clone #8, Hct116, resistance generated with compound 3, A1978G / N660D; 72 hrs
# Method: as §1
# [4] = system: Hct116 resistant cell line clone #22 (p97 N660D); assay: GI50 fold-change, resistant clone #22 vs parental; assay type: cell-based, human; settings: Clone #22, Hct116, resistance generated with compound 4, A1978G / N660D; 72 hrs
# Method: as §1
# [5] = system: Hct116 resistant cell line clone #25 (p97 P500T); assay: GI50 fold-change, resistant clone #25 vs parental; assay type: cell-based, human; settings: Clone #25, Hct116, resistance generated with compound 4, C1498A / P500T; 72 hrs
# Method: as §1
# [6] = system: Hct116 resistant cell line clone #27 (p97 T688A); assay: GI50 fold-change, resistant clone #27 vs parental; assay type: cell-based, human; settings: Clone #27, Hct116, resistance generated with compound 4, A2062G / T688A; 72 hrs
# Method: as §1
# [7] = system: Hct116 resistant cell line clone #29 (p97 N660K); assay: GI50 fold-change, resistant clone #29 vs parental; assay type: cell-based, human; settings: Clone #29, Hct116, resistance generated with compound 4, C1980A / N660K; 72 hrs
# Method: as §1
# [8] = system: Hct116 resistant cell line clone #30 (p97 F516L); assay: GI50 fold-change, resistant clone #30 vs parental; assay type: cell-based, human; settings: Clone #30, Hct116, resistance generated with compound 4, T1546C / F516L; 72 hrs
# Method: as §1
# [9] = system: Hct116 resistant cell line clone #42 (p97 P472A); assay: GI50 fold-change, resistant clone #42 vs parental; assay type: cell-based, human; settings: Clone #42, Hct116, resistance generated with compound 4, C1414G / P472A; 72 hrs
# Method: as §1
# [10] = system: Hct116 resistant cell line clone #45 (p97 F539I); assay: GI50 fold-change, resistant clone #45 vs parental; assay type: cell-based, human; settings: Clone #45, Hct116, resistance generated with compound 4, T1615A / F539I; 72 hrs
# Method: as §1
# [11] = system: Hct116 resistant cell line clone #47 (p97 E498D); assay: GI50 fold-change, resistant clone #47 vs parental; assay type: cell-based, human; settings: Clone #47, Hct116, resistance generated with compound 4, G1494T / E498D; 72 hrs
# Method: as §1
# [12] = system: DLD-1 resistant cell line clone #64 (p97 N660N/S); assay: GI50 fold-change, resistant clone #64 vs parental; assay type: cell-based, human; settings: Clone #64, DLD-1, resistance generated with compound 4, A1979G/A / N660N/S; 72 hrs
# Method: as §1
# [13] = system: DLD-1 resistant cell line clone #82 (p97 A569A/T); assay: GI50 fold-change, resistant clone #82 vs parental; assay type: cell-based, human; settings: Clone #82, DLD-1, resistance generated with compound 4, G1705G/A / A569A/T; 72 hrs
# Method: as §1
# [14] = system: DLD-1 resistant cell line clone #83 (p97 N660N/D); assay: GI50 fold-change, resistant clone #83 vs parental; assay type: cell-based, human; settings: Clone #83, DLD-1, resistance generated with compound 4, A1978G/A / N660N/D; 72 hrs
# Method: as §1
# [15] = system: DLD-1 resistant cell line clone #87 (p97 S541P); assay: GI50 fold-change, resistant clone #87 vs parental; assay type: cell-based, human; settings: Clone #87, DLD-1, resistance generated with compound 4, T1621T/C / S541P; 72 hrs
# Method: as §1
# [16] = system: Hct116 resistant cell line clone #90 (p97 Q473P); assay: GI50 fold-change, resistant clone #90 vs parental; assay type: cell-based, human; settings: Clone #90, Hct116, resistance generated with compound 4, A1418C / Q473P; 72 hrs
# Method: as §1
# [17] = system: Hct116 resistant cell line clone #117 (p97 L482I); assay: GI50 fold-change, resistant clone #117 vs parental; assay type: cell-based, human; settings: Clone #117, Hct116, resistance generated with compound 4, C1444A / L482I; 72 hrs
# Method: as §1
# [18] = system: Hct116 resistant cell line clone #137 (p97 T475I); assay: GI50 fold-change, resistant clone #137 vs parental; assay type: cell-based, human; settings: Clone #137, Hct116, resistance generated with compound 4, C1424T / T475I; 72 hrs
# Method: as §1
# [19] = system: Hct116 resistant cell line clone #139 (p97 P472S); assay: GI50 fold-change, resistant clone #139 vs parental; assay type: cell-based, human; settings: Clone #139, Hct116, resistance generated with compound 4, C1414T / P472S; 72 hrs
# Method: as §1
# [20] = system: Hct116 resistant cell line clone #152 (p97 T688I); assay: GI50 fold-change, resistant clone #152 vs parental; assay type: cell-based, human; settings: Clone #152, Hct116, resistance generated with compound 4, C2063T / T688I; 72 hrs
# Method: Dose titration of test compounds were conducted in Hct116, DLD-1, or LoVo cell lines. In brief, cells were plated in 384-well plates and a selected candidate drug compound was added in a 10-point 2-fold serial dilution. […] Hct116 cells were plated at 50,000 cells per 15 cm dish and treated with GI50-GI90 doses of test compound for 2-4 weeks until individual colonies of cells were visible on the plate.
# [21] = system: Hct116 resistant cell line clone #180 (p97 A569T); assay: GI50 fold-change, resistant clone #180 vs parental; assay type: cell-based, human; settings: Clone #180, Hct116, resistance generated with compound 4, G1705A / A569T; 72 hrs
# Method: as §1
# [22] = system: Hct116 resistant cell line clone #207 (p97 V485D); assay: GI50 fold-change, resistant clone #207 vs parental; assay type: cell-based, human; settings: Clone #207, Hct116, resistance generated with compound 4, T1454A / V485D; 72 hrs
# Method: as §1
# [23] = system: Hct116 resistant cell line clone #5 (p97 D649A); settings: Clone #5, Hct116, resistance generated with compound 2, A1946C / D649A; 72 hrs
Compound,Fold Change in GI50 Compared to Parental Cell Line [1] [fold],Fold Change in GI50 Compared to Parental Cell Line [2] [fold],Fold Change in GI50 Compared to Parental Cell Line [3] [fold],Fold Change in GI50 Compared to Parental Cell Line [4] [fold],Fold Change in GI50 Compared to Parental Cell Line [5] [fold],Fold Change in GI50 Compared to Parental Cell Line [6] [fold],Fold Change in GI50 Compared to Parental Cell Line [7] [fold],Fold Change in GI50 Compared to Parental Cell Line [8] [fold],Fold Change in GI50 Compared to Parental Cell Line [9] [fold],Fold Change in GI50 Compared to Parental Cell Line [10] [fold],Fold Change in GI50 Compared to Parental Cell Line [11] [fold],Fold Change in GI50 Compared to Parental Cell Line [12] [fold],Fold Change in GI50 Compared to Parental Cell Line [13] [fold],Fold Change in GI50 Compared to Parental Cell Line [14] [fold],Fold Change in GI50 Compared to Parental Cell Line [15] [fold],Fold Change in GI50 Compared to Parental Cell Line [16] [fold],Fold Change in GI50 Compared to Parental Cell Line [17] [fold],Fold Change in GI50 Compared to Parental Cell Line [18] [fold],Fold Change in GI50 Compared to Parental Cell Line [19] [fold],Fold Change in GI50 Compared to Parental Cell Line [20] [fold],also measured
"CC(C)C[C@H](NC(=O)[C@H](Cc1ccccc1)NC(=O)c1cnccn1)B(O)O [Compound 1, [(1R)-3-methyl-1-[(2S)-3-phenyl-2-(pyrazin-2-ylformamido)propanamido]butyl]boronic acid, reference compound]",1.0,1.1,0.8,1.0,1.3,1.1,0.9,0.9,1.0,0.8,0.8,0.7,1.5,1.2,1.1,1.2,0.8,0.8,1.0,1.0,Fold Change in GI50 Compared to Parental Cell Line [21]: 0.8 fold; Fold Change in GI50 Compared to Parental Cell Line [22]: 1.0 fold; Fold Change in GI50 Compared to Parental Cell Line [23]: 1.0 fold
"Cc1cc2c(C(N)=O)cccc2n1-c1nc2c(c(NCc3ccccc3)n1)COCC2 [Compound 4, 1-[4-(benzylamino)-5H,7H,8H-pyrano[4,3-d]pyrimidin-2-yl]-2-methyl-1H-indole-4-carboxamide]",20.0,11.8,1.8,3.1,1.6,50.3,16.5,7.1,6.1,6.4,2.4,1.2,6.6,2.7,39.8,3.0,3.2,4.4,4.8,60.7,Fold Change in GI50 Compared to Parental Cell Line [21]: 5.9 fold; Fold Change in GI50 Compared to Parental Cell Line [22]: 17.0 fold; Fold Change in GI50 Compared to Parental Cell Line [23]: 18.7 fold
